According to patent US20220183282A1, “Fatty Acid Derivatives For Improving The Effect Of Agrochemical Actives” (priority 2019, published 2022):

System: apple leaf cuticles
Assay: Penetration of lodosulfuron-methyl through isolated apple leaf cuticles in the presence of test substances
Type: in vitro ADME
Details: for Mean penetration for lodosulfuron-methyl after time: lodosulfuron-methyl 0.1 g/L in spray liquid, 10° C./61% rel. air humidity
Source text: Surfactants can affect the absorption of (active) ingredients through membranes such as skin, films or the plant cuticle. As a “finite-dose” application, it is known for the single administration or application of a solution, cream, gel etc. to a membrane that the absorption of active ingredient can be influenced by some additives such as surfactants even after wetting.
The principle of the method has been published and described in detail e.g. in WO-A-2005/194844 or WO2017211572 A1). The leaf cuticles were enzymatically isolated in the manner described in the literature from apple leaves of orchard trees in a commercial stone fruit growing facility near Frankfurt am Main in 2017. The stomata-free cuticles were first dried under air and then installed into stainless steel diffusion cells. After application to the original upper side of the leaf and evaporation of the test liquid, i.e. of the spray liquids of the active ingredients with or without the inventive substances or comparative compositions, the diffusion cells were transferred into thermostated blocks and charged with aqueous liquid. The water used to make up the aqueous test liquids was local tap water (of known composition). At regular intervals, aliquot samples were taken and the proportion of active ingredient penetrated was determined by HPLC or alternatively by radio-chemical method where radio-labelled active ingredient was used as tracer to determine the concentration. During the experiment, the temperature in the system (block, diffusion cells, liquids, etc.) and the air humidity above the spray deposit on the cuticle were controlled. […] The analytical determination by means of HPLC (1290 Infinity, Agilent) was effected thereafter with a Kinetex column 30×2, 1 mm, 2.6μ C18 100 A (Phenomenex), taking a 20 μL aliquot as injection volume at the specified times. In each case, the geometric mean values of the penetration for intact membranes at the mean measurement times are given.

## CCCCCCCCC(=O)OCCOCCOCCOCCOCCOCCOC [A1, Pelargonic acid 6 EO ester methyl ether]
Test substance 0.3 g/L, 1 day
  Mean penetration for lodosulfuron-methyl after time: 1.0%
Test substance 0.3 g/L, 2 days
  Mean penetration for lodosulfuron-methyl after time: 1.5%
Test substance 1.0 g/L, 1 day
  Mean penetration for lodosulfuron-methyl after time: 2.3%
Test substance 1.0 g/L, 2 days
  Mean penetration for lodosulfuron-methyl after time: 3.3%
Test substance 3.0 g/L, 1 day
  Mean penetration for lodosulfuron-methyl after time: 7.6%
Test substance 3.0 g/L, 2 days
  Mean penetration for lodosulfuron-methyl after time: 8.8%
Summary of Table 6
  uptake of the active ingredient (lodosulfuron-methyl), in words: strongly increases the uptake
